The record followed here is US3961066A, “6,7-Benzomorphan derivatives” (priority 1973, dated 1976).

Where two headings read alike, the source gives them in different places.

The nature of data set [1]: Analgesic activity (antagonism of the syndrome produced by intraperitoneal injection of 0.6 % aqueous acetic acid). The data set is classed as in vivo, mice. The settings on record: for ED50: Mus musculus; for ED50 / analgesic activity compared with morphine: sc; for analgesic activity compared with pentazocin: s.c., result in words; for analgesic activity compared with morphine: mouse, in vivo. How it is done: Note: The test was based on the specific antagonism of the test compound to the typical syndrome produced by intraperitoneal injection of 0.6 % aqueous acetic acid. The syndrome was characterized by intermittent contractions of the abdomen, twisting and turning of the trunk and extension of the hind legs. A group of 5 mice was used for each dose level. The test compound was administered subcutaneously 20 minutes before the injection of acetic acid. […] The ED50 value was calculated according to the Litchfield-Wilcoxon's method.

Data set [2] can be described thus: Physical dependency (abstinence syndrome, body weight decrease after withdrawal following 4 weeks of s.c. administration). Format: in vivo, male rats of Wistar strain. Set-up: key to Abstinence syndrome: ++: severe decrease (about 5 % decrease); ++: moderate decrease; +: mild decrease; -: no decrease. The settings on record: rats. How it is done: Note: Groups of animals of male rats of Wistar strain (body weight, 150 g), each group consisting of 20 male rats, were subcutaneously given the test compound twice a day for 4 consecutive weeks. On the next day after drug withdrawal, the body weight was measured. The symbols have the following meanings: ++, severe decrease (about 5 % decrease); ++, moderate decrease; +, mild decrease; -, no decrease.

Where [3] appears, read: mice, s.c. 20 minutes before the injection of acetic acid, Litchfield-Wilcoxon's method, read-out: ED50.

For the compound `CC1CN(CCc2ccccc2)C2Cc3ccc(O)cc3C1(C)C2` (stereo not drawn) [2'-hydroxy-2-(β-phenylethyl)-4,5-dimethyl-6,7-benzomorphan], the ED50 (as a rule, the dose at which the effect has come halfway, by size or by number of responders) in data set [1] (setting [3]) was found to be 0.23 mg/kg. Also, in data set [1] (mice), the “analgesic activity compared with pentazocin” value is given as “much more potent analgesic activity than pentazocin”. The “analgesic activity compared with morphine” value in data set [1] is listed as “more potent analgesic activity than morphine”.
For the compound `CC1CN(CCCC(=O)c2ccc(F)cc2)C2Cc3ccc(O)cc3C1(C)C2` (stereo not drawn) [2'-hydroxy-2-[γ-(p-fluorobenzoyl)-n-propyl]-4,5-dimethyl-6,7-benzomorphan], in data set [2] (s.c., 40 mg/kg/day for 4 weeks, twice a day, body weight measured on the next day after drug withdrawal), the Abstinence syndrome result is listed as “-”. In addition, the physical dependency entry in data set [2] (subcutaneously, everyday for 4 weeks, result in words) is recorded as “did not produce any physical dependency”. In data set [1] (setting [3]), the ED50 was determined as 0.36 mg/kg. For the same compound, in data set [1] (mice), the “analgesic activity compared with pentazocin” value is reported as “much more potent analgesic activity than pentazocin”. The “analgesic activity compared with morphine” value in data set [1] is “more potent analgesic activity than morphine”.
For `CN1CC[C@]23c4c5ccc(O)c4O[C@H]2[C@@H](O)C=C[C@H]3[C@H]1C5` [Morphine, reference compound], in data set [1], the 50% effect level (ED50) was put at a dose of 1.2 mg/kg.
